Usually solubility stands for the dissolved amount per volume that the medium holds. Higher therefore signals a readily soluble substance. What is called Cmax is the highest concentration seen after dosing. As usually defined, the Tmax is the time at which the peak concentration occurs.

Converted amounts (≈) assume the structure as drawn. A value given as a limit tells only on which side of the number the result lay.

This is an account of results in US20260103479A1, “PRODRUGS OF OPICAPONE” (BIAL- PORTELA & CA, S.A., priority 2022, published 2026).

A short description of data set [1]: In vitro stability in human liver S9 fraction. It counts as in vitro ADME. As to conditions: 1 μM; S9 1 mg/mL; after 0.75 h. The method, then: (§1) The stability of 1 μM of compound 1 was assessed in the following fractions: phosphate buffer, human plasma, rat plasma, human liver S9 fraction, rat liver S9 fraction and rat liver homogenates.
(§2) Reaction was initiated by adding of 1 μM of test compound to the desired matrix (plasma, liver homogenate at 0.4 g/mL or S9 fraction at 1 mg/mL, respectively), with a final volume of 350 μL. At the following time points 0, 5, 15, 30, 45, 60 min, 50 μL of sample is taken and precipitated with 200 μL of acetonitrile 1% formic acid containing the internal standard (opicapone ^13C6) at 1 μM. Samples were centrifuged at 20,000 g at 4° C. for 10 min, and then analysed by LC-MS/MS using a bioanalytical method previously developed in-house.
(§3) The stability of 1 μM of compound 4 was assessed in the following fractions: phosphate buffer, human plasma, rat plasma, human liver S9 fraction, rat liver S9 fraction and rat liver homogenates.
(§4) Reaction was initiated by adding 1 μM of test compound to the desired matrix (plasma or S9 fraction at 1 mg/mL), with a final volume of 250 μL. […] Samples were centrifuged at 20,000 g at 4° C. for 10 min, and then analysed by LC-MS/MS using bioanalytical methods previously developed in-house. […]

Data set [2] is described as follows: In vitro stability in human plasma. The class given is in vitro ADME. As to conditions: 1 μM; after 0.75 h. On the procedure:
as §1, §2, §3, §4

A short description of another data set: physchem. The note with it: water, thermodynamic from solid.
A short description of data set [3]: In vitro stability / conversion to opicapone in rat liver homogenates. The class given is in vitro ADME. As to conditions: 1 μM. The method, then: as §1, §2, §3
Reaction was initiated by adding 1 μM of test compound to the desired matrix (plasma or S9 fraction at 1 mg/mL), with a final volume of 250 μL. For plasma, at the time points of 0, 15, 30, 45 and 60 min of incubation, 50 μL of sample is taken and precipitated with 100 μL of internal standard working solution (ISWS) consisting of acetonitrile 1% formic acid containing the internal standard (opicapone ^13C6) at 1 μM. For S9 fraction, 50 μL of sample was taken and precipitated with 100 μL of ISWS after 60 min of incubation. For rat liver homogenates (0.2 g/mL of protein), reaction was initiated by adding of 1 μM of test compound with a final volume of 350 μL. At the following time points of 0, 5, 15, 30, 45, 60 min of incubation, 50 μL of sample is taken and precipitated with 200 μL ISWS. Samples were centrifuged at 20,000 g at 4° C. for 10 min, and then analysed by LC-MS/MS using bioanalytical methods previously developed in-house. Compound 4 was stable in all matrices with exception of rat liver homogenates, where the remaining compound was of approximately 31%, after 60 min of incubation. Solutions of the test compounds were prepared at 10 μM using 50 mM potassium phosphate buffer (KPB) at pH 7.4, by adding 1 μL of compound stock at 10 mM to 999 μL KPB 50 mM.

Data set [4] can be described thus: In vitro stability in rat plasma. The class given is in vitro ADME. As to conditions: 1 μM; after 0.75 h. On the procedure:
as §1, §2, §3, §4

The nature of data set [5]: Subcutaneous pharmacokinetics in rats. It counts as in vivo, male Wistar rats. As to conditions: s.c. 3 mg/kg; for Cmax / Tmax / AUC(0-t): male, Wistar, sc, rat plasma, analyte prodrug; for AUC(0-t): read-out: AUClast of prodrug; for irritation at the injection site: DMSO:20% HPBCD (1:9), rat. On the procedure:
The pharmacokinetic properties of compounds 1 and 4 were assessed by subcutaneous injection to 4 male Wistar rats (3 mg/kg; DMSO:20% HPBCD (1:9)).
During the studies, blood was collected at different time points, from tail vein, spun at 1500×g in a refrigerated centrifuge (4° C.) for 15 min, and the plasma obtained was stored at −80° C. until further analysis. The plasma samples collected were analysed for compound 1, compound 4 and opicapone exposure. The bioanalysis involved the use of LC-MS/MS after plasma precipitation.

Data set [6] is described as follows: In vitro stability in rat liver S9 fraction. It counts as in vitro ADME. The note with it: 1 μM; S9 1 mg/mL; after 0.75 h. The method, then:
as §1, §2, §3, §4

A short description of data set [7]: In vitro stability in potassium phosphate buffer pH 7.4. It counts as physicochemical. As to conditions: 1 μM, after 0.75 h. The method, then: as §1, §2
Solutions of the test compounds were prepared at 10 μM using 50 mM potassium phosphate buffer (KPB) at pH 7.4, by adding 1 μL of compound stock at 10 mM to 999 μL KPB 50 mM. […]
as §3, §4

A further data set has as its system L-DOPA metabolism. In words: Subcutaneous pharmacodynamics: impact on L-DOPA and 3-OMD plasma levels. The class given is in vivo, male Wistar rats. The note with it: s.c. 3 mg/kg with 12 mg/kg L-DOPA plus 3 mg/kg benserazide vs without compound; rat. On the procedure:
As proof-of-concept, the effects of compound 4 on L-DOPA metabolism was evaluated in 4 male Wistar rats. Animals were subcutaneously injected with a single formulation (in DMSO:PEG 400:30% SBEBCD (1:2:2)) containing 12 mg/kg of L-DOPA plus 3 mg/kg of benserazide with or without 3 mg/kg of compound 4. Plasma samples were collected as described above and analyzed for levels of L-DOPA and its metabolite 3-O-methyldopa (3-OMD).

A short description of data set [8]: Long-term stability studies in the solid state. It counts as physicochemical.
A short description of data set [9]: Aqueous solubility in distilled (pure) water at room temperature. The note with it: thermodynamic from solid.
Experimental: (§5) The solubility studies were completed at room temperature. For the determination of the solubility increasing amounts of distilled water was added to 5 mg of the test sample until its complete dissolution of the product observed by naked eye.

Experimental for physchem: as §5

Turning to `Cc1c(Cl)c(C)[n+]([O-])c(Cl)c1-c1noc(-c2cc(OP(=O)(O)O)c(O)c([N+](=O)[O-])c2)n1` [Compound 1, 2,5-dichloro-3-(5-(4-hydroxy-3-nitro-5-(phosphonooxy)phenyl)-1,2,4-oxadiazol-3-yl)-4,6-dimethylpyridine 1-oxide], the “stability in human liver S9 fraction” value in data set [1] is on record as “stable”. For the same compound, the “stability in human plasma” value in [2] is reported as “stable”. This compound returned a solubility in “physchem” of 6000 µg/mL (≈ 12.2 mM). Besides, in data set [3], the “conversion to opicapone in rat liver homogenates” value is “successfully converted to opicapone”. In addition, in data set [3] (rat liver homogenate 0.4 g/mL, after 0.5 h), the “% remaining of the parent compound” value was “less than 25%”. Besides, in data set [4], the “stability in rat plasma” value was “stable”. In data set [5], the Cmax is 7770 ng/mL, the Tmax was 60 min, the AUC(0-t) amounted to 15500 ng·h/mL and the “irritation at the injection site” value is “low levels of irritation”. Besides, the “stability in rat liver S9 fraction” value in [6] is “stable”. The stability in buffer entry in [7] is listed as “stable”.
Regarding `Cc1c(Cl)c(C)[n+]([O-])c(Cl)c1-c1noc(-c2cc(OCOP(=O)(O)O)c(O)c([N+](=O)[O-])c2)n1` [Compound 4, 2,5-dichloro-3-(5-(4-hydroxy-3-nitro-5-((phosphonooxy)methoxy)phenyl)-1,2,4-oxadiazol-3-yl)-4,6-dimethylpyridine 1-oxide], the “stability in human liver S9 fraction” value in data set [1] was “stable”. Also, in the data set on L-DOPA metabolism, the “increase in the AUClast of circulating L-DOPA” value is on record as 1.7 fold and the “levels of L-DOPA metabolite 3-OMD” value is “decrease”. Also, the “stability in human plasma” value in data set [2] is “stable”. In data set [3], the “conversion to opicapone in rat liver homogenates” value is “successfully converted to opicapone”. Further, the remaining compound entry in data set [3] (rat liver homogenates 0.2 g/mL, after 60 min of incubation) is on record as “approximately 31%”. The “long-term stability in the solid state” value in [8] is recorded as “particularly stable”. Moreover, the solubility in data set [9] is greater than 500 µg/mL. Moreover, the “stability in rat plasma” value in data set [4] was “stable”. In data set [5], the Cmax was 3140 ng/mL, the Tmax was 30 min, the AUC(0-t) came to 9660 ng·h/mL and the “irritation at the injection site” value is on record as “low levels of irritation”. In addition, the “stability in rat liver S9 fraction” value in data set [6] is “stable”. For the same compound, the stability in buffer entry in [7] is reported as “stable”.
